Test [1] addresses T1, human ANO6 (Homo sapiens, UniProt Q4KMQ2).
T1 construct: expressed in transfected cells
T1 sequence (Q4KMQ2 1-931 isoform Q4KMQ2-2): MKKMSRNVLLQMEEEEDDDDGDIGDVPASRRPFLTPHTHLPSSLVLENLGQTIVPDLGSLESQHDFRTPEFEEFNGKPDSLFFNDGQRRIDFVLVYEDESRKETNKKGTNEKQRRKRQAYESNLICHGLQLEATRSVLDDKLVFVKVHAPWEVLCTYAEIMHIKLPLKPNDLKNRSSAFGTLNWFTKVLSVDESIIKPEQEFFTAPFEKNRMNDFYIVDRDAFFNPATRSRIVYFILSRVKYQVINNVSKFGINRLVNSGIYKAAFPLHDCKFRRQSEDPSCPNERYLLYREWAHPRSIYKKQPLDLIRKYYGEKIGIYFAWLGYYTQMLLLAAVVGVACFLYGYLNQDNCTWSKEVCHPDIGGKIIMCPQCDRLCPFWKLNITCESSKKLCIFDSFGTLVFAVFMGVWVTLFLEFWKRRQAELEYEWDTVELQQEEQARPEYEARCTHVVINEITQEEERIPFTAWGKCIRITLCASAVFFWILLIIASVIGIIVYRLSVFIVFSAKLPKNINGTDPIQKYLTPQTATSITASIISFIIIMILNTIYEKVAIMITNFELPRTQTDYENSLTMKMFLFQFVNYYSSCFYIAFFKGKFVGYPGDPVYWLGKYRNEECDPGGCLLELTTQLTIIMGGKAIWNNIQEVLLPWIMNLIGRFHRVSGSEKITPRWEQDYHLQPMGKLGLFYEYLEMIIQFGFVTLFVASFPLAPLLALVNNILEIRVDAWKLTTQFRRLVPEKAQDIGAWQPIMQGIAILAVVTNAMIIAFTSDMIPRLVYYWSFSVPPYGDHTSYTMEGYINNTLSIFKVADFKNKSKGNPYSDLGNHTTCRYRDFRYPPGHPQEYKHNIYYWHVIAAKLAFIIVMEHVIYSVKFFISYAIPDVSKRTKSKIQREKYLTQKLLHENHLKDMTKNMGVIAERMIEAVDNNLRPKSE
The test can be described thus: LACT C2 assay (phosphatidylserine scramblase function assay). As to conditions: FRT cells expressing human ANO6, 10 μM ionomycin; for inhibition at 0.1 µM: test compound 100 nM, read-out: Inhibition Level 100 nM; for inhibition at 1 µM: test compound 1 μM, read-out: Inhibition Level 1 μM. Type of test: cell-based. Summed up:
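Inhibition was normalised between ionomycin-only (0%) and untreated (100%) wells, with triplicates averaged. Readout was background-corrected Lact-C2-GFP (500 nM) fluorescence from imaged cells. The cells were FRT cells stably expressing human ANO6, given compound at 1% DMSO for 10 min before a 10 min 10 μM ionomycin challenge.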

For test [2], the target named is T1, human ANO6. The test is described as follows: YFP quenching assay (ANO6 ion channel activity). Type of test: cell-based. As to conditions: 10 μM ionomycin; for inhibition at 1 µM: test compound 1 μM, read-out: Inhibition Level 1 μM; for inhibition at 30 µM: test compound 30 μM, read-out: Inhibition Level 30 μM. Summed up:
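FRT cells stably expressing human ANO6 and YFP-H148Q/I152L/F46L, preincubated 10 min at 40° C with compounds (1% DMSO) in PBS. Quench read every 0.4 s after injecting 140 mM SCN- with 10 μM ionomycin; % inhibition from the 3.6–7.6 s fluorescence difference, normalised to no-ionomycin (100%) and ionomycin-only (0%) wells, duplicate or triplicate.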

For `O=C(NCc1ccc(Br)cc1)c1cccc(Nc2ccc(-c3ccccc3)nn2)c1` [Compound A43], at human ANO6 [1], the inhibition at 0.1 µM is under 30% and the inhibition at 1 µM lay in the range of 30 to 60%. Moreover, at human ANO6 [2], the inhibition at 1 µM was at least 60% and the inhibition at 30 µM is at least 60%.

For the compound `Cc1ccc(CNC(=O)c2cccc(Nc3ccc(-c4ccc(F)cc4)nn3)c2)o1` [Compound A1], at human ANO6 [1], the inhibition at 0.1 µM is under 30% and the inhibition at 1 µM is under 30%. Besides, at human ANO6 [2], the inhibition at 1 µM is 30 to 60% and the inhibition at 30 µM was at least 60%.

Regarding `Cc1ccc(CNC(=O)c2cccc(Nc3ccc(-c4cccc(F)c4)nn3)c2)o1` [Compound A87], the inhibition at 1 µM was 30 to 60% on human ANO6 [1] and at least 60% at human ANO6 [2].

`O=C(N[C@@H]1C[C@H]1c1ccccc1)c1cccc(Nc2ncc(-c3ccccc3)cn2)c1` [Compound 117, N-[(1R,2S)-2-phenylcyclopropyl]-3-[(5-phenylpyrimidin-2-yl)amino]benzamide]: on human ANO6 [1], the inhibition at 0.1 µM is under 30% and the inhibition at 1 µM was under 30%. Further, at human ANO6 [2], the inhibition at 1 µM was at least 60%.

For the compound `O=C(Nc1ccc2c(c1)OCO2)c1cccc(Nc2ncc(-c3cccc(F)c3)cn2)c1` [Compound A85], at human ANO6 [1], the inhibition at 0.1 µM is under 30% and the inhibition at 1 µM was at least 60%. In addition, the inhibition at 1 µM at human ANO6 [2] is at least 60%.

With `CCCCCNC(=O)c1cccc(Nc2ccc(-c3ccccc3)nn2)c1` [Compound A72], the inhibition at 1 µM on human ANO6 [1] was 30 to 60%; on human ANO6 [2], at least 60%. Further, the inhibition at 30 µM on human ANO6 [2] is at least 60%.

Regarding `Cc1ccc(CNC(=O)c2cccc(Nc3ncc(-c4ccccc4)cn3)c2)o1` [Compound 2, N-[(5-methylfuran-2-yl)methyl]-3-[(5-phenylpyrimidin-2-yl)amino]benzamide], on human ANO6 [1], the inhibition at 0.1 µM was under 30% and the inhibition at 1 µM is at least 60%. In addition, on human ANO6 [2], the inhibition at 1 µM lay in the range of 30 to 60% and the inhibition at 30 µM was at least 60%.

Take `O=C(NCCCc1ccccc1)c1cccc(Nc2ccc(-c3ccccc3)nn2)c1` [Compound A51]: at human ANO6 [1], the inhibition at 0.1 µM fell in the range of 30 to 60% and the inhibition at 1 µM was in the range of 30 to 60%. For the same compound, on human ANO6 [2], the inhibition at 1 µM is at least 60% and the inhibition at 30 µM is at least 60%.

In the case of `O=C(NCCCc1ccccc1)c1cccc(Nc2ccc(-c3ccccc3)cc2)c1` [Compound 53, 3-({[1,1′-biphenyl]-4-yl}amino)-N-(3-phenylpropyl)benzamide], the inhibition at 1 µM on human ANO6 [1] and on human ANO6 [2] was at least 60% each time.

Turning to `O=C(NC1CCC1)c1cccc(Nc2ccc(-c3ccccc3)nn2)c1` [Compound 25, N-cyclobutyl-3-[(6-phenylpyridazin-3-yl)amino]benzamide], the inhibition at 1 µM at human ANO6 [1] and on human ANO6 [2] was 30 to 60% in each case. Further, at human ANO6 [2], the inhibition at 30 µM is at least 60%.

With `Cc1ccc(CNC(=O)c2cccc(Nc3ccc(-c4cscc4C)nn3)c2)o1` [Compound 74, N-[(5-methylfuran-2-yl)methyl]-3-{[6-(4-methylthiophen-3-yl)pyridazin-3-yl]amino}benzamide], on human ANO6 [1], the inhibition at 0.1 µM lay within 30 to 60% and the inhibition at 1 µM was at least 60%. The inhibition at 1 µM on human ANO6 [2] was at least 60%.

As to `Cc1ccc(CNC(=O)c2cccc(Nc3ccc(-c4ccccc4)cn3)c2)o1` [Compound 4, N-[(5-methylfuran-2-yl)methyl]-3-[(5-phenylpyridin-2-yl)amino]benzamide], on human ANO6 [1], the inhibition at 0.1 µM was under 30% and the inhibition at 1 µM is at least 60%. Besides, on human ANO6 [2], the inhibition at 1 µM was at least 60% and the inhibition at 30 µM is at least 60%.

Take `O=C(NCc1ccccc1)c1cccc(Nc2ccc(-c3cccc(F)c3)nn2)c1` [Compound A34]: on human ANO6 [1], the inhibition at 0.1 µM is under 30% and the inhibition at 1 µM is under 30%. In addition, at human ANO6 [2], the inhibition at 1 µM was at least 60% and the inhibition at 30 µM was at least 60%.

The values are drawn from patent US20230080054A1 (ILDONG PHARMACEUTICAL CO., LTD., priority 2021, published 2023).
